Data as given in patent US20260069539A1, “LIPIDOID COMPOUNDS AND RELATED COMPOSITIONS AND USES” (Poseida Therapeutics, Inc., priority 2023, published 2026).

Test system: liver cells
Test: In vivo LNP delivery of fLuciferase mRNA, bioluminescent imaging (BLI) at 4 hr
Design: species or system BALB/C mice
Details: for Total Flux: 0.5 mg/kg fLuciferase mRNA intravenous, BLI at 4 hr; for Mean Luciferase Flux: 0.5 mg/kg fLuc mRNA i.v., 4 hr
Description: Adult female BALB/C mice (n=3/group) were intravenously administered 0.5 mg/kg of 5′-CleanCap—fLuciferase mRNA (TriLink Biotech) formulated with the LNP compositions shown in Table 6. One group of mice was treated with vehicle (PBS, Thermo Fisher Scientific, USA) as a negative control.
(§1) The location and extent of luciferase expression in treated and control mice were determined at 4 hr for mRNA and 48 hr for DNA by bioluminescent imaging (BLI) of anesthetized mice using an IVIS Lumina in vivo imaging system (Perkin Elmer) according to the manufacturer's instructions. Briefly, mice were anesthetized using isoflurane in oxygen, and placed supine on a heated stage. Mice were then administered D-luciferin (Perkin-Elmer #122799) IP, and BLI was performed.
as §1, with “hr” for “hr for mRNA and 48 hr for DNA”
as §1, with “hr” for “hr for mRNA and 48 hr for DNA”
The location and extent of luciferase expression in treated and control mice were determined at 4 hr by bioluminescent imaging (BLI) of anesthetized mice using an IVIS Lumina in vivo imaging system (Perkin Elmer) according to the manufacturer's instructions.
Briefly, mice were anesthetized using isoflurane in oxygen, and placed supine on a heated stage. Mice were then administered D-luciferin (Perkin-Elmer #122799) IP, and BLI was performed.
as §1, with “hr” for “hr for mRNA and 48 hr for DNA”

[1] = Example 104, experiment of Table 63
[2] = LNP with 40.75 % moles of the compound (DOPC 5.0/Chol 51.75/PEG-DMG 2.5, Lipid:RNA 100)
[3] = LNP with 43.17 % moles of the compound (DOPC 11.96/Chol 43.17/PEG-DMG 1.7, Lipid:RNA 100)
[4] = LNP with 54.0 % moles of the compound (DOPC 10.0/Chol 35.0/PEG-DMG 1.0, Lipid:RNA 100)
[5] = Table 13 experiment, LNP with 50 % moles of the compound (DOPC 10/Chol 38.5/PEG-DMG 1.5, Lipid:RNA 80)

SMILES: CCCCC[C@H]1CC[C@H](C(=O)OCC(COC(=O)CCCCCN(CCCCCC(=O)OCC(COC(=O)[C@H]2CC[C@H](CCCCC)CC2)COC(=O)[C@H]2CC[C@H](CCCCC)CC2)CC(C)O)COC(=O)[C@H]2CC[C@H](CCCCC)CC2)CC1 (mixture of isomers) [COMPOUND NO. 55]
- Total Flux [1]: 7.89E+10 p/s

SMILES: CCCCC[C@H]1CC[C@H](C(=O)OCC(COC(=O)CCCCCN(CCCCCC(=O)OCC(COC(=O)[C@H]2CC[C@H](CCCCC)CC2)COC(=O)[C@H]2CC[C@H](CCCCC)CC2)CC(O)CO)COC(=O)[C@H]2CC[C@H](CCCCC)CC2)CC1 (mixture of isomers) [COMPOUND NO. 59]
- Total Flux (Example 104, experiment of Table 64): 1.06E+11 p/s

SMILES: CC(C)CCCC1CCC(COC(=O)CCN(CCCN(C)CCCN(CCC(=O)OCC2CCC(CCCC(C)C)CC2)CCC(=O)OCC2CCC(CCCC(C)C)CC2)CCC(=O)OCC2CCC(CCCC(C)C)CC2)CC1 (stereo not drawn) [COMPOUND NO. 1]
- Mean Luciferase Flux [2]: 8.79E+09 p/s
- Mean Luciferase Flux [3]: 1.01E+10 p/s
- Mean Luciferase Flux [4]: 6.15E+08 p/s

SMILES: CN(CCCN(CCC(=O)OCC1CCC(CCCCC2CCCCC2)CC1)CCC(=O)OCC1CCC(CCCCC2CCCCC2)CC1)CCCN(CCC(=O)OCC1CCC(CCCCC2CCCCC2)CC1)CCC(=O)OCC1CCC(CCCCC2CCCCC2)CC1 (stereo not drawn) [COMPOUND NO. 2]
- Mean Luciferase Flux [2]: 2.53E+07 p/s

SMILES: CN(CCCN(CCC(=O)OCCOC(=O)CCCCC1CCCCC1)CCC(=O)OCCOC(=O)CCCCC1CCCCC1)CCCN(CCC(=O)OCCOC(=O)CCCCC1CCCCC1)CCC(=O)OCCOC(=O)CCCCC1CCCCC1 [COMPOUND NO. 5]
- Mean Luciferase Flux [2]: 2.84E+11 p/s
- Mean Luciferase Flux [3]: 7.16E+10 p/s
- Mean Luciferase Flux [4]: 7.25E+08 p/s

SMILES: CN(CCN(CCC(=O)OCCOC(=O)CCCCC1CCCCC1)CCC(=O)OCCOC(=O)CCCCC1CCCCC1)CCN(CCC(=O)OCCOC(=O)CCCCC1CCCCC1)CCC(=O)OCCOC(=O)CCCCC1CCCCC1 [COMPOUND NO. 6]
- Mean Luciferase Flux [2]: 1.78E+11 p/s
- Mean Luciferase Flux [3]: 3.23E+10 p/s
- Mean Luciferase Flux [4]: 4.58E+10 p/s

SMILES: CC(C)CCCC(=O)OCC1CCC(COC(=O)CCN(CCCN(C)CCCN(CCC(=O)OCC2CCC(COC(=O)CCCC(C)C)CC2)CCC(=O)OCC2CCC(COC(=O)CCCC(C)C)CC2)CCC(=O)OCC2CCC(COC(=O)CCCC(C)C)CC2)CC1 (stereo not drawn) [COMPOUND NO. 7]
- Mean Luciferase Flux [2]: 6.41E+10 p/s
- Mean Luciferase Flux [3]: 1.84E+11 p/s
- Mean Luciferase Flux [4]: 1.55E+11 p/s

SMILES: CCCCCC(=O)OCC1CCC(COC(=O)CCN(CCCN(C)CCCN(CCC(=O)OCC2CCC(COC(=O)CCCCC)CC2)CCC(=O)OCC2CCC(COC(=O)CCCCC)CC2)CCC(=O)OCC2CCC(COC(=O)CCCCC)CC2)CC1 (stereo not drawn) [COMPOUND NO. 8]
- Mean Luciferase Flux [2]: 1.27E+11 p/s
- Mean Luciferase Flux [3]: 3.31E+11 p/s
- Mean Luciferase Flux [4]: 2.33E+11 p/s

SMILES: CCCCC[C@H]1CC[C@H](C(=O)OCCCCCN(CCO)CCCOC(=O)[C@H]2CC[C@H](CCCCC)CC2)CC1 [COMPOUND NO. 21]
- Mean Luciferase Flux [5]: 1.27E+08 p/s

SMILES: CCCCC[C@H]1CC[C@H](C(=O)OCCCCCN(CCCO)CCCOC(=O)[C@H]2CC[C@H](CCCCC)CC2)CC1 [COMPOUND NO. 22]
- Mean Luciferase Flux [5]: 2.31E+07 p/s

SMILES: CCCCC[C@H]1CC[C@H](C(=O)OCCCCCCCN(CCO)CCCCCCCOC(=O)[C@H]2CC[C@H](CCCCC)CC2)CC1 [COMPOUND NO. 24]
- Mean Luciferase Flux [5]: 3.46E+06 p/s

SMILES: CCCCCCCCC(CCCCCC)C(=O)O[C@H]1CC[C@H](OC(=O)CCCCCN(CCO)CCCCCC(=O)O[C@H]2CC[C@H](OC(=O)C(CCCCCC)CCCCCCCC)CC2)CC1 (stereo partly drawn) [COMPOUND NO. 27]
- Mean Luciferase Flux [5]: 1.10E+10 p/s

SMILES: CCCCCCCCC(CCCCCC)C(=O)O[C@H]1CC[C@H](OC(=O)CCCCCN(CCCO)CCCCCC(=O)O[C@H]2CC[C@H](OC(=O)C(CCCCCC)CCCCCCCC)CC2)CC1 (stereo partly drawn) [COMPOUND NO. 28]
- Mean Luciferase Flux [5]: 3.28E+10 p/s

SMILES: CCCCCCCCC(CCCCCCCC)OC(=O)[C@H]1CC[C@H](C(=O)OCCCCCN(CCO)CCCCCOC(=O)[C@H]2CC[C@H](C(=O)OC(CCCCCCCC)CCCCCCCC)CC2)CC1 [COMPOUND NO. 30]
- Mean Luciferase Flux [5]: 2.54E+10 p/s

SMILES: CCCCCCCCC(CCCCCCCC)OC(=O)[C@H]1CC[C@H](C(=O)OCCCCCN(CCCO)CCCCCOC(=O)[C@H]2CC[C@H](C(=O)OC(CCCCCCCC)CCCCCCCC)CC2)CC1 [COMPOUND NO. 31]
- Mean Luciferase Flux [5]: 1.00E+10 p/s

SMILES: CCCCCCCCC(CCCCCCCC)OC(=O)[C@H]1CC[C@H](C(=O)OCCCCCN(CCCCO)CCCCCOC(=O)[C@H]2CC[C@H](C(=O)OC(CCCCCCCC)CCCCCCCC)CC2)CC1 [COMPOUND NO. 32]
- Mean Luciferase Flux [5]: 7.76E+09 p/s

SMILES: CCCCCCCCC(CCCCCC)C(=O)OC1CCC(OC(=O)CCCCCN(CCO)CCCCCCCOC(=O)C2CCC(CCCCC)CC2)CC1 (stereo not drawn) [COMPOUND NO. 33]
- Mean Luciferase Flux [5]: 1.73E+10 p/s

SMILES: CCCCCCCCC(CCCCCCCC)OC(=O)C1CCC(C(=O)OCCCCCN(CCO)CCCCCCCOC(=O)C2CCC(CCCCC)CC2)CC1 (stereo not drawn) [COMPOUND NO. 34]
- Mean Luciferase Flux [5]: 1.87E+10 p/s

SMILES: CCCCC[C@H]1CC[C@H](C(=O)CCCCN(CCCOC(=O)[C@H]2CC[C@H](CCCCC)CC2)CCCN(C)CCCN(CCCOC(=O)[C@H]2CC[C@H](CCCCC)CC2)CCCOC(=O)[C@H]2CC[C@H](CCCCC)CC2)CC1 [COMPOUND NO. 35]
- Mean Luciferase Flux (Table 13 experiment, first line of compound 35, printed 50 % moles (Table 12: 40.75 % moles, Lipid:RNA 80)): 2.35E+09 p/s
- Mean Luciferase Flux (Table 13 experiment, second line of compound 35, printed 50 % moles (Table 12: 40.75 % moles, Lipid:RNA 40)): 3.13E+09 p/s

SMILES: CC(C)CCCC1CCC(COC(=O)C(CCCN(C)CCCC(C(=O)OCC2CCC(CCCC(C)C)CC2)C(=O)OCC2CCC(CCCC(C)C)CC2)C(=O)OCC2CCC(CCCC(C)C)CC2)CC1 (stereo not drawn) [COMPOUND NO. 43]
- Mean Luciferase Flux (Table 14 experiment, LNP with 40.75 % moles of the compound (Lipid:RNA 40)): 1.12E+09 p/s
- Mean Luciferase Flux (Table 14 experiment, LNP with 50 % moles of the compound (Lipid:RNA 80)): 1.10E+09 p/s

SMILES: CCCCC(CC)CCCCOC(=O)C(CCCN(CCCO)CCCC(C(=O)OCCCCC1CCCCC1)C(=O)OCCCCC1CCCCC1)C(=O)OCCCCC1CCCCC1 (stereo not drawn) [COMPOUND NO. 44]
- Total Flux [1]: 5.73E+08 p/s

SMILES: O=C(OCCCCC1CCCCC1)C(CCCCCCN(CCCO)CCCCCCC(C(=O)OCCCCC1CCCCC1)C(=O)OCCCCC1CCCCC1)C(=O)OCCCCC1CCCCC1 [COMPOUND NO. 45]
- Total Flux [1]: 2.42E+10 p/s

SMILES: CCCCCC(=O)OCC1CCC(COC(=O)C(CCCN(CCCO)CCCC(C(=O)OCC2CCC(COC(=O)CCCCC)CC2)C(=O)OCC2CCC(COC(=O)CCCCC)CC2)C(=O)OCC2CCC(COC(=O)CCCCC)CC2)CC1 (stereo not drawn) [COMPOUND NO. 49]
- Total Flux [1]: 2.00E+11 p/s

SMILES: CCCCC[C@H]1CC[C@H](C(=O)OCC(COC(=O)CCCCCN(CCCCCO)CCCCCC(=O)OCC(COC(=O)[C@H]2CC[C@H](CCCCC)CC2)COC(=O)[C@H]2CC[C@H](CCCCC)CC2)COC(=O)[C@H]2CC[C@H](CCCCC)CC2)CC1 [COMPOUND NO. 51]
- Total Flux [1]: 2.65E+10 p/s

SMILES: CCCCC[C@H]1CC[C@H](C(=O)OCC(COC(=O)CCCCCN(CCCCCCO)CCCCCC(=O)OCC(COC(=O)[C@H]2CC[C@H](CCCCC)CC2)COC(=O)[C@H]2CC[C@H](CCCCC)CC2)COC(=O)[C@H]2CC[C@H](CCCCC)CC2)CC1 [COMPOUND NO. 52]
- Total Flux [1]: 1.81E+11 p/s

SMILES: CCCCC[C@H]1CC[C@H](C(=O)OCC(COC(=O)CCCCCN(CCCCCC(=O)OCC(COC(=O)[C@H]2CC[C@H](CCCCC)CC2)COC(=O)[C@H]2CC[C@H](CCCCC)CC2)[C@H]2CC[C@H](CO)CC2)COC(=O)[C@H]2CC[C@H](CCCCC)CC2)CC1 [COMPOUND NO. 54]
- Total Flux [1]: 1.30E+11 p/s

SMILES: CCCCC[C@H]1CC[C@H](C(=O)OCC(COC(=O)CCCCCN(CCCCCC(=O)OCC(COC(=O)[C@H]2CC[C@H](CCCCC)CC2)COC(=O)[C@H]2CC[C@H](CCCCC)CC2)C[C@H](C)O)COC(=O)[C@H]2CC[C@H](CCCCC)CC2)CC1 [COMPOUND NO. 56]
- Total Flux [1]: 9.88E+10 p/s
